pIC50: −log10 of the molar value.
What was measured:
CYP3A = test: Metabolizing enzyme identification (in-house data); type: in vitro ADME
[1] = test system: CYP1A2, CYP2B6, CYP2C8, CYP2C9, CYP2C19, and CYP2D6; test: Metabolizing enzyme identification (in-house data); type: in vitro ADME
wild strain of COVID-19 = test: Target concentration needed to achieve EC90; type: cell-based, SARS-CoV-2
[2] = Population pharmacokinetic analysis of phase I plasma concentrations (SAD, MAD, food effect); type: in vivo, human
From the text: (§1) The data obtained from a phase I clinical trial assessing the safety, tolerability, pharmacokinetics, and impact of food on leritrelvir Pharmacokinetics in healthy adult subjects (NCT05829551) were utilized in the PopPK analysis. The trial was designed as a randomized, double-blind, placebo-controlled study involving escalating single and multiple doses. The study design is outlined in Figure 1. In the single-ascending dose (SAD) arm, participants received leritrelvir tablets alone or with 100 mg of RTV. In the multiple-ascending dose (MAD) arm, leritrelvir tablets were given alone or with 100 mg RTV twice-daily on Days 1–4, followed by a single dose on Day 5, or thrice-daily on Days 1–4, followed by a single dose on Day 5. In the food consumption study arm, leritrelvir tablets alone or with 100 mg RTV were administered once during each dosing period after an overnight fast of at least 10 h or following a standard meal (high-fat, high-calorie) on Day 1. Each dosing period included a single administration, totaling two administrations, with a minimum interval of 8 days between periods.
FIGURE 1 Overall study design diagram. The study comprised three distinct components: a single-ascending dose study (SAD), a food effect study, and a multiple-ascending dose study (MAD). The SAD portion of the study was divided into two parts: Part 1 involved a dose escalation study of single-agent administration of RAY1216 tablets (S-1, S-2, and S-3), while Part 2 focused on the combination of RAY1216 tablets with 100 mg RTV (S-1R, S-2R, and S-3R). It should be noted that the S-2R and S-3R groups were initially planned but were ultimately not conducted due to dose-undetermined factors. The food effect study (FE) entails the administration of single doses of RAY1216 tablets at 800 mg (FE-1) and in combination with RTV at 500 mg (FE-2) to groups of 12 subjects. Group A undergoes a fasting administration cycle followed by a postprandial administration cycle, while Group B experiences the reverse order of administration cycles. The two cycles consist of crossover administration with a washout period lasting a minimum of 8 days. The MAD involves the co-administration of RAY1216 tablets (300 mg, 500 mg, and 700 mg) with 100 mg RTV in a BID dosing regimen, with escalating doses administered over 5 consecutive days and solely in the morning on the 5th day. Furthermore, a 400 mg RAY1216 single-agent TID dosing regimen administered over 5 consecutive days with administration limited to the morning on the 5th day.
Leritrelvir PK data was analyzed utilizing nonlinear mixed-effects modeling (NONMEM) ([Lindstrom and Bates, 1990]) and implemented with NONMEM version 7.5 (ICON Development Solutions. Ellicott City, Maryland, USA). The estimation algorithm used was the first-order conditional estimation method with interaction (FOCEI) of interindividual variability and residual variability. Perl Speaks NONMEM (PsN) version 4.2 (Uppsala University, Sweden) ([Lindbom et al., 2004]; [Lindbom et al., 2005]) and R version 4.1.2 were used as tools for executing NONMEM and summarizing outcomes. The model evaluated the impact of age, weight, body mass index, gender, albumin, alanine aminotransferase, aspartate aminotransferase, alkaline phosphatase, serum creatinine, creatinine clearance rate, total bilirubin, gamma-glutamyl transpeptidase, food consumption, and concomitant medication on the pharmacokinetics of leritrelvir. The final PopPK model was determined through a stepwise forward addition (p < 0.01) and backward deletion (p < 0.001) approach. The specifics of the model development process are outlined in the Supplementary Material. Evaluation of the final PopPK model was conducted using goodness-of-fit plots, prediction-corrected visual predictive check (pcVPC) ([Bergstrand et al., 2011]), bootstrapping ([Ette, 1997]), and shrinkage assessments ([Savic and Karlsson, 2009]). […]

[3] = Phase I safety and tolerability in healthy subjects; type: in vivo, human; details: monotherapy or in combination with ritonavir
From the text: as §1

[4] = test system: SARS-CoV-2 βCoV/KOR/KCDC03/2020 strain; parameters: method as in Chen et al., 2023; details: Vero cells, ref Chen et al., 2023, cited from earlier work
wild-type strain = test system: wild-type strain; parameters: method as in Chen et al., 2024; details: ref Chen et al., 2024, read-out: concentration for 90% of maximal effect (EC90); cited from earlier work
Alpha variant = test system: Alpha variant; parameters: method as in Chen et al., 2024; details: ref Chen et al., 2024, read-out: concentration for 90% of maximal effect (EC90); cited from earlier work
Beta variant = test system: Beta variant; parameters: method as in Chen et al., 2024; details: ref Chen et al., 2024, read-out: concentration for 90% of maximal effect (EC90); cited from earlier work
Delta variant = test system: Delta variant; parameters: method as in Chen et al., 2024; details: ref Chen et al., 2024, read-out: concentration for 90% of maximal effect (EC90); cited from earlier work
Omicron BA.1 = test system: Omicron BA.1; parameters: method as in Chen et al., 2024; details: ref Chen et al., 2024, read-out: concentration for 90% of maximal effect (EC90); cited from earlier work
Omicron BA.5 = test system: Omicron BA.5; parameters: method as in Chen et al., 2024; details: ref Chen et al., 2024, read-out: concentration for 90% of maximal effect (EC90); cited from earlier work
SARS-CoV-2 [5] = details: COVID-19 patients; 400 mg TID alone or 300 mg with 100 mg RTV BID; ref Wang et al., 2023; cited from earlier work
SARS-CoV-2 [6] = test system: SARS-CoV-2; parameters: method as in Zhan et al., 2024; details: ref Zhan et al., 2024, cited from earlier work

## O=C(NC1CCCC1)C(=O)[C@H](C[C@@H]1CCNC1=O)NC(=O)[C@@H]1[C@H]2CCC[C@H]2CN1C(=O)[C@@H](NC(=O)C(F)(F)F)C1CCCCC1 [leritrelvir]
CYP3A
  role of CYP3A in metabolism: primary metabolizing enzyme
[1]
  involvement of other CYP isoforms in metabolism: minimal to no involvement
Wild strain of COVID-19
  concentration needed to achieve EC90: 0.165 mg/L
[2]; 44.4/12.2
  ratio of estimated clearance of leritrelvir to leritrelvir combined with RTV: 3.64
[2]; Comb (with RTV)
  Absorption lag time, ALAG1: Bootstrapping Median (95% CI): 0.166 (0.131–0.185) hr
  Absorption lag time, ALAG1: Population model estimates (%RSE) [95% CI]: 0.166 h
  Absorption rate, Ka: Bootstrapping Median (95% CI): 0.170 (0.154–0.185) hr^-1
  Absorption rate, Ka: Population model estimates (%RSE) [95% CI]: 0.169 h⁻¹
  Clearance, CL: Bootstrapping Median (95% CI): 12.2 (10.7–14.0) L/h
  Clearance, CL: Population model estimates (%RSE) [95% CI]: 12.2 L/h
  Duration of zero order absorption, D1: Bootstrapping Median (95% CI): 0.0719 (0.0412–0.129) hr
  Duration of zero order absorption, D1: Population model estimates (%RSE) [95% CI]: 0.0684 h
  Intercompartment clearance between the central compartment and peripheral compartment, Q: Population model estimates (%RSE) [95% CI]: 0.611 L/h
  Volume distribution of peripheral compartment, Vc: Bootstrapping Median (95% CI): 9.90 (7.68–13.2) L
  Volume distribution of peripheral compartment, Vc: Population model estimates (%RSE) [95% CI]: 9.78 L
  Volume distribution of peripheral compartment, Vp: Bootstrapping Median (95% CI): 9.24 (6.93–12.8) L
  Volume distribution of peripheral compartment, Vp: Population model estimates (%RSE) [95% CI]: 9.30 L
[2]; Mono (leritrelvir alone)
  Absorption lag time, ALAG1: Bootstrapping Median (95% CI): 0.188 (0.164–0.2) hr
  Absorption lag time, ALAG1: Population model estimates (%RSE) [95% CI]: 0.189 h
  Absorption rate, Ka: Bootstrapping Median (95% CI): 0.292 (0.258–0.329) hr^-1
  Absorption rate, Ka: Population model estimates (%RSE) [95% CI]: 0.293 h⁻¹
  Clearance, CL: Bootstrapping Median (95% CI): 44.2 (39.0–50.7) L/h
  Clearance, CL: Population model estimates (%RSE) [95% CI]: 44.4 L/h
  Duration of zero order absorption, D1: Bootstrapping Median (95% CI): 0.078 (0.0359–0.171) hr
  Duration of zero order absorption, D1: Population model estimates (%RSE) [95% CI]: 0.0722 h
  Intercompartment clearance between the central compartment and peripheral compartment, Q: Population model estimates (%RSE) [95% CI]: 5.57 L/h
  Volume distribution of peripheral compartment, Vc: Bootstrapping Median (95% CI): 18.7 (14.3–25.3) L
  Volume distribution of peripheral compartment, Vc: Population model estimates (%RSE) [95% CI]: 18.9 L
  Volume distribution of peripheral compartment, Vp: Bootstrapping Median (95% CI): 58.2 (44.7–79.5) L
  Volume distribution of peripheral compartment, Vp: Population model estimates (%RSE) [95% CI]: 58.2 L
[2]; cell for OC2.CL (96 h) is empty below
  Occasion variability of CL after multiple dose for 12 h, OC1.CL: Bootstrapping Median (95% CI): 18.7 (10–29.3) %
[2]; cell for OC2.Vc (96 h) is empty below
  Occasion variability of Vc after multiple dose for 12 h, OC1.Vc: Bootstrapping Median (95% CI): 53.1 (34–82.5) %
[2]; fed subjects, 0-2 h post-dosing
  Proportional error of fed subjects within 2 h after dose: Bootstrapping Median (95% CI): 70.5 (56.4–80.7) %
[2]; fed vs fasted
  Impact of food consumption on D1, D1.FED: Bootstrapping Median (95% CI): 1.33 (1.22–1.49)
  Impact of food consumption on F1, F1.FED: Bootstrapping Median (95% CI): 1.50 (1.25–1.82)
  Impact of food consumption on Ka, Ka.FED: Bootstrapping Median (95% CI): 21.3 (10.8–41)
[2]; in vivo
  Inter-individual variability CL: Bootstrapping Median (95% CI): 29.9 (25.5–34.6) %
  Inter-individual variability D1: Bootstrapping Median (95% CI): 152 (114–189) %
  Inter-individual variability Ka: Bootstrapping Median (95% CI): 25.3 (20.7–29.4) %
  Inter-individual variability Vc: Bootstrapping Median (95% CI): 79.8 (64.7–93.4) %
  Inter-individual variability Vp: Bootstrapping Median (95% CI): 43.6 (31–52.5) %
  Residual variability, Proportional residual: Bootstrapping Median (95% CI): 24.2 (22.4–26.1) %
[2]; with RTV vs alone
  enhancement of exposure of leritrelvir by co-administration with RTV: approximately 4 fold
[3]
  Grade 3 or higher adverse events (AEs): No Grade 3 or higher adverse events (AEs) were reported
  changes in corrected QT (QTc) interval, pulse rate (PR) interval, heart rate, and blood pressure: no meaningful changes were observed
  dose-dependent adverse reactions: No dose-dependent adverse reactions were observed
  serious adverse events (SAEs): no serious adverse events (SAEs) occurred
[4]; read-out: 90% inhibitory concentration (IC90)
  IC90: 0.092 µM
[4]; read-out: half maximal inhibitory concentration (IC50)
  pIC50: 7.44
wild-type strain
  EC90: 0.228 µM
Alpha variant
  EC90: 0.351 µM
Beta variant
  EC90: 0.688 µM
Delta variant
  EC90: 0.254 µM
Omicron BA.1
  EC90: 0.208 µM
Omicron BA.5
  EC90: 0.363 µM
SARS-CoV-2 [5]
  duration of viral shedding: 166 h
  duration of viral shedding shorter than the placebo group: 4.2 days
SARS-CoV-2 [6]; 400 mg TID, after a 3-day treatment period
  decrease in the SARS-CoV-2 viral load compared to the placebo: approximately tenfold
SARS-CoV-2 [6]; oral 400 mg TID for 5 days
  reduction in the time to sustained clinical recovery of all 11 COVID-19 symptoms compared to the placebo: 20.3 h
